From patent US20070099877A1, “N-aryl-thienopyrimidin-4-amines and analogs as activators of caspases and inducers of apoptosis and the use thereof” (Cytovia, Inc., priority 2005, published 2007)
Counter-ions that a name gives are not always drawn. Like-named read-outs stand apart in the source and are kept apart here.

Assays:
Format in all cases: cell-based
[1] = tested on: human colon carcinoma cell line HCT116; test: Caspase cascade activation in HCT116 cells; conditions: Homo sapiens, HCT-116, 48 h, read-out: Caspase activation Potency EC50 HCT116 (48 h)
Protocol: (§1) Human breast cancer cell line T-47D, human lung cancer cell line H1299, human hepatocellular carcinoma cell line SNU398, human colon carcinoma cell line HCT116 were grown according to media component mixtures designated by American Type Culture Collection+10% FCS (Invitrogen Corporation), in a 5% CO2-95% humidity incubator at 37° C. T-47D and H1299 cells were maintained at a cell density between 50 and 80% confluency at a cell density of 0.1 to 0.6×10^6 cells/mL. Cells were harvested at 600×g and resuspended at 0.65×10^6 cells/mL into appropriate media+10% FCS. An aliquot of 22.5 μL of cells was added to a well of a 384-well microtiter plate containing 2.5 μL of a 10% DMSO in RPMI-1640 media solution containing 0.16 to 100 μM of N-(2,5-dimethoxyphenyl)-2-methylthieno[3,2-d]pyrimidin-4-amine or other test compound (0.016 to 10 μM final). An aliquot of 22.5 μL of cells was added to a well of a 384-well microtiter plate containing 2.5 μL of a 10% DMSO in RPMI-1640 media solution without test compound as the control sample. The samples were mixed by agitation and then incubated at 37° C. for 24 h or 48 h in a 5% CO2-95% humidity incubator. After incubation, the samples were removed from the incubator and 25 μL of a solution containing 14 μM of N-(Ac-DEVD)-N′-ethoxycarbonyl-R110 (SEQ ID NO.:1) fluorogenic substrate (Cytovia, Inc.; WO99/18856), 20% sucrose (Sigma), 20 mM DTT (Sigma), 200 mM NaCl (Sigma), 40 mM Na PIPES buffer pH 7.2 (Sigma), and 500 μg/mL lysolecithin (Calbiochem) was added. The samples were mixed by agitation and incubated at room temperature. Using a fluorescent plate reader (Model SPECTRAfluor Plus, Tecan), an initial reading (T=0) was made approximately 1-2 min after addition of the substrate solution, employing excitation at 485 nm and emission at 530 nm, to determine the background fluorescence of the control sample. After the 3 h incubation, the samples were read for fluorescence as above (T=3 h).
(§2) The Relative Fluorescence Unit values (RFU) were used to calculate the sample readings as follows: RFU(T=3h)−Control RFU(T=O)=Net RFU(T=3h)
(§3) The activity of caspase cascade activation was determined by the ratio of the net RFU value for N-(2,5-dimethoxyphenyl)-2-methylthieno[3,2-d]pyrimidin-4-amine or other test compound to that of control samples. The EC50 (nM) was determined by a sigmoidal dose-response calculation (Prism 3.0, GraphPad Software Inc.).

[2] = tested on: human breast cancer cell line T-47D; test: Caspase cascade activation (DEVD-R110 fluorogenic substrate) in T-47D cells; conditions: Homo sapiens, T47D
Protocol: as §1, §2, §3

[3] = tested on: human lung cancer cell line H1299; test: Caspase cascade activation in H1299 cells; conditions: NCI-H1299, 24 h, read-out: Caspase activation Potency EC50 H1299 (24 h)
Protocol: as §1, §2, §3

[4] = tested on: human hepatocellular carcinoma cell line SNU398; test: Caspase cascade activation in SNU398 cells; conditions: Homo sapiens, SNU-398, 48 h, read-out: Caspase activation Potency EC50 SNU398 (48 h)
Protocol: as §1, §2, §3

[5] = 24 h, T47D cells, 24 h, read-out: Caspase activation Potency EC50 T47D (24 h)
[6] = 48 h, T-47D cells, 48 h, read-out: Caspase activation Potency EC50 T-47D (48 h)

EC50 [1] | EC50 [2, 5] | EC50 [2, 6] | EC50 [3] | EC50 [4] | Structure (SMILES)
> 10 µM | > 10 µM | > 10 µM | > 10 µM | > 10 µM | COc1ccc(OC)c(Nc2nc(C)nc3sc(C)c(C)c23)c1 [Example 29, N-(2,5-Dimethoxy-phenyl)-2,5,6-trimethylthieno[2,3-d]pyrimidin-4-amine hydrochloride]
> 10 µM | > 10 µM | > 10 µM | > 10 µM | > 10 µM | COc1ccc(OC)c(Nc2ncnc3sc(-c4ccccc4)c(C)c23)c1 [Example 16, N-(2,5-Dimethoxyphenyl)-5-methyl-6-phenylthieno[2,3-d]pyrimidin-4-amine hydrochloride]
> 10 µM | > 10 µM | > 10 µM | > 10 µM | > 10 µM | c1nc(Nc2ccc3[nH]ccc3c2)c2sccc2n1 [Example 24, N-(1H-Indol-5-yl)thieno[3,2-d]pyrimidin-4-amine]
0.341 µM | 0.114 µM | 0.233 µM | 5.03 µM | > 10 µM | COc1ccc(OC)c(Nc2ncnc3c(C)csc23)c1 [Example 22, N-(2,5-Dimethoxyphenyl)-7-methylthieno[3,2-d]pyrimidin-4-amine]
> 10 µM | > 10 µM | > 10 µM | > 10 µM | > 10 µM | COc1ccc(Oc2ccccc2)cc1Nc1ncnc2ccsc12 [Example 38, N-(2-Methoxy-5-phenoxyphenyl)thieno[3,2-d]pyrimidin-4-amine]
> 10 µM | 5.07 µM | 5.33 µM | 5.06 µM | 3.57 µM | COc1ccc([N+](=O)[O-])cc1Nc1ncnc2ccsc12 [Example 37, N-(2-Methoxy-5-nitrophenyl)thieno[3,2-d]pyrimidin-4-amine]
> 10 µM | > 10 µM | > 10 µM | > 10 µM | > 10 µM | COc1ccc(O)c(Nc2ncnc3ccsc23)c1 [Example 42, N-(2-Hydroxy-5-methoxyphenyl)thieno[3,2-d]pyrimidin-4-amine]
> 10 µM | > 10 µM | > 10 µM | > 10 µM | > 10 µM | COc1ccc(Nc2nc(C)nc3scc(C)c23)cc1 [Example 13, N-(4-Methoxyphenyl)-2,5-dimethylthieno[2,3-d]pyrimidin-4-amine hydrochloride]
> 10 µM | > 10 µM | > 10 µM | > 10 µM | > 10 µM | COc1cccc(Nc2ncnc3ccsc23)c1OC [Example 9, N-(2,3-Dimethoxyphenyl)thieno[3,2-d]pyrimidin-4-amine hydrochloride]
0.319 µM | 0.02 µM | 0.036 µM | 0.041 µM | 0.206 µM | COc1ccc(OC)c(Nc2nc(SC)nc3ccsc23)c1 [Example 27, N-(2,5-Dimethoxyphenyl)-2-(methylthio)thieno[3,2-d]pyrimidin-4-amine]
> 10 µM | > 10 µM | > 10 µM | > 10 µM | > 10 µM | COc1ccc(Nc2ncnc3scc(C)c23)cc1 [Example 23, N-(4-Methoxyphenyl)-5-methylthieno[2,3-d]pyrimidin-4-amine]
> 10 µM | 1.81 µM | 2.02 µM | > 10 µM | > 10 µM | COc1ccc(Nc2ncnc3ccsc23)cc1OC [Example 14, N-(3,4-Dimethoxyphenyl)thieno[3,2-d]pyrimidin-4-amine hydrochloride]
> 10 µM | 5.57 µM | > 10 µM | 5.44 µM | > 10 µM | Brc1cccc(Nc2ncnc3ccsc23)c1 [Example 25, N-(3-Bromophenyl)thieno[3,2-d]pyrimidin-4-amine hydrochloride]
> 10 µM | 5.24 µM | 2.14 µM | 5.49 µM | 4.85 µM | COc1ccc(C(C)(C)C)cc1Nc1ncnc2ccsc12 [Example 40, N-(5-tert-Butyl-2-methoxyphenyl)thieno[3,2-d]pyrimidin-4-amine]
> 10 µM | > 10 µM | > 10 µM | > 10 µM | > 10 µM | COc1ccccc1Nc1ncnc2ccsc12 [Example 4, N-(2-Methoxyphenyl)thieno[3,2-d]pyrimidin-4-amine]
> 10 µM | > 10 µM | > 10 µM | > 10 µM | > 10 µM | COc1ccc(OC)c(Nc2ncnc3sc(C)c(C)c23)c1 [Example 34, N-(2,5-Dimethoxyphenyl)-5,6-dimethylthieno[2,3-d]pyrimidin-4-amine]

The remaining lines, values behind:

Structure (SMILES) | EC50 [1] | EC50 [2, 5] | EC50 [2, 6] | EC50 [3] | EC50 [4]
COc1ccc(OC)c(Nc2nc(-c3ccccc3)nc3ccsc23)c1 [Example 26, N-(2,5-Dimethoxyphenyl)-2-phenylthieno[3,2-d]pyrimidin-4-amine] | > 10 µM | 0.476 µM | 0.496 µM | 5.04 µM | > 10 µM
COc1ccc(OC)c(Nc2ncnc3cc(-c4ccccc4)sc23)c1 [Example 32, N-(2,5-Dimethoxyphenyl)-6-phenylthieno[3,2-d]pyrimidin-4-amine] | 4.25 µM | 2.07 µM | 4.01 µM | 1.42 µM | 1.6 µM
COc1ccc(OC)c(Nc2ncnc3cc(Br)sc23)c1 [Example 20, 6-Bromo-N-(2,5-dimethoxyphenyl)thieno[3,2-d]pyrimidin-4-amine] | 0.341 µM | 0.016 µM | 0.037 µM | 0.114 µM | 0.431 µM
COc1ccc(OC)c(Nc2nc(C)nc3scc(C)c23)c1 [Example 7, N-(2,5-Dimethoxyphenyl)-2,5-dimethylthieno[2,3-d]pyrimidin-4-amine hydrochloride] | > 10 µM | > 10 µM | > 10 µM | > 10 µM | > 10 µM
Cc1cc(Nc2ncnc3ccsc23)no1 [Example 21, N-(5-Methylisoxazol-3-yl)thieno[3,2-d]pyrimidin-4-amine hydrochloride] | > 10 µM | > 10 µM | > 10 µM | > 10 µM | > 10 µM
COc1cccc(Nc2ncnc3ccsc23)c1 [Example 11, N-(3-Methoxyphenyl)thieno[3,2-d]pyrimidin-4-amine hydrochloride] | > 10 µM | 0.555 µM | 1.19 µM | 5.37 µM | 5.73 µM
CCOC(=O)C=Cc1ccc(Nc2ncnc3ccsc23)cc1 [Example 33, 3-[4-(Thieno[3,2-d]pyrimidin-4-ylamino)-phenyl]acrylic acid ethyl ester] | > 10 µM | > 10 µM | > 10 µM | > 10 µM | > 10 µM
COc1ccc(N)cc1Nc1ncnc2ccsc12 [Example 72, N-(5-Amino-2-methoxyphenyl)thieno[3,2-d]pyrimidin-4-amine] | > 10 µM | > 10 µM | > 10 µM | > 10 µM | > 10 µM
COc1cc(Nc2ncnc3ccsc23)cc(OC)c1OC [Example 10, N-(3,4,5-Trimethoxyphenyl)thieno[3,2-d]pyrimidin-4-amine hydrochloride] | 5 µM | 0.065 µM | 0.072 µM | 5.02 µM | 1.05 µM
COc1cccc(OC)c1Nc1ncnc2ccsc12 [Example 62, N-(2,6-Dimethoxyphenyl)thieno[3,2-d]pyrimidin-4-amine] | > 10 µM | > 10 µM | > 10 µM | > 10 µM | > 10 µM
COc1cccc(C)c1Nc1ncnc2ccsc12 [Example 30, N-(2-Methoxy-6-methylphenyl)thieno[3,2-d]pyrimidin-4-amine] | > 10 µM | > 10 µM | > 10 µM | 5.11 µM | > 10 µM
